In general, bioavailability refers to dose-corrected exposure relative to a reference, in per cent. In general, T/C refers to the result in the treated group divided by that in the control group, in per cent.

The record followed here is US11464780B2, “Pyrazolopyrimidine derivative and use thereof” (Simcere Pharmaceutical Co. Ltd., priority 2018, dated 2022).

Molecules are shown by their SMILES. Read-outs that look alike come from different tables or passages of the source.

One series concerns the target T1, ALK (Homo sapiens, UniProt Q9UM73).
T1 construct: purchased Reaction Biology Corp. (contract assay)
Description: Kinase inhibitory activity (33P-ATP filter binding, Reaction Biology Corp.). Type of series: biochemical. To be noted: read-out: The half maximal inhibitory concentration IC50 on the kinases, ALK. An outline of the steps: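 Compounds (10 concentrations, 3-fold dilutions, 2% DMSO final) preincubated 20 min at room temperature with kinase and substrate in Hepes pH 7.5 buffer. Reaction started with ^33P-ATP, 120 min at room temperature; filter-binding radioactivity expressed as activity remaining versus DMSO control, IC50 from fitted dose-response curve.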

A short description of series [1]: In vivo pharmacokinetic test in mice. The arrangement: species or system male CD-1 mice. To be noted: for AUC(0-t): read-out: Area under the curve AUC0-last; for Cmax: read-out: Peak concentration Cmax. The procedure, abridged:
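Male CD-1 mice, 7-9 weeks, given a single IV (3 mg/kg) or intragastric dose in 5% DMSO/10% solutol/85% water. Plasma drug levels measured by LC/MS/MS at multiple time points to derive PK parameters.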

Series [2] is described as follows: In vivo cassette pharmacokinetic test in mice. The arrangement: species or system male CD-1 mice. The settings on record: cassette, mice. The procedure: The dose of the compounds: […] PO dose of 3 mg/kg, and administration volume of 3 mL/kg.
Series [3] relates to human colon cancer cell line KM12 subcutaneous xenograft tumor. The series is described as follows: In vivo efficacy, subcutaneous xenograft tumor of human colon cancer KM12. To be noted: PO. The arrangement: species or system BALB/c mouse. The method, then: Experimental object: evaluation of the in vivo efficacy of test drugs such as WX002A on subcutaneous xenograft tumor of human colon cancer cell line KM12 cell in BALB/c mouse model.
(§1) Drug preparation: The compounds were all prepared into clear solutions with 5% DMSO+10% solutol+85% water as solvent for administration in the PO (intragastric) group.
Tumor measurement: the tumor diameters were measured with a vernier caliper twice a week. The calculation formula of tumor volume is: V=0.5×a×b^2, wherein a and b represent the long diameter and short diameter of the tumor, respectively. The anti-tumor efficacy of the compounds is evaluated by TGI (%). TGI (%) reflects tumor growth inhibition rate.
Statistical analysis: The statistical analysis was based on the relative tumor volume and tumor weight at the end of the experiment using SPSS software. One-way ANOVA was used to analyze the comparison between multiple groups. […] P<0.05 was considered to indicate significant difference.
In general terms: In xenograft studies the graft and the host belong to different species.

For series [4], the system named is human lung cancer LU-01-0414 subcutaneous xenograft tumor. The series is described as follows: In vivo efficacy, subcutaneous xenograft tumor of human lung cancer LU-01-0414. Details: species or system BALB/c mouse. To be noted: LU-01-0414 xenograft, 14th day, PO. The method, then:
Experimental object: evaluation of the in vivo efficacy of test drugs such as WX002A on subcutaneous xenograft tumor of human lung cancer LU-01-0414 in BALB/c mouse model.
as §1
Tumor measurement: the tumor diameters were measured with a vernier caliper twice a week. The calculation formula of tumor volume is: V=0.5×a×b^2, wherein a and b represent the long diameter and short diameter of the tumor, respectively. The anti-tumor efficacy of the compounds was evaluated by TGI (%). TGI (%) reflects tumor growth inhibition rate.
Statistical analysis: the statistical analysis was based on the relative tumor volume and tumor weight at the end of the experiment using SPSS software. One-way ANOVA was used to analyze the comparison between multiple groups. […] P<0.05 was considered to indicate significant difference.

Where [5] appears, read: male, CD-1, mouse, plasma, PO dose of 10 mL/kg.

T1 sequence (Q9UM73 19-1620): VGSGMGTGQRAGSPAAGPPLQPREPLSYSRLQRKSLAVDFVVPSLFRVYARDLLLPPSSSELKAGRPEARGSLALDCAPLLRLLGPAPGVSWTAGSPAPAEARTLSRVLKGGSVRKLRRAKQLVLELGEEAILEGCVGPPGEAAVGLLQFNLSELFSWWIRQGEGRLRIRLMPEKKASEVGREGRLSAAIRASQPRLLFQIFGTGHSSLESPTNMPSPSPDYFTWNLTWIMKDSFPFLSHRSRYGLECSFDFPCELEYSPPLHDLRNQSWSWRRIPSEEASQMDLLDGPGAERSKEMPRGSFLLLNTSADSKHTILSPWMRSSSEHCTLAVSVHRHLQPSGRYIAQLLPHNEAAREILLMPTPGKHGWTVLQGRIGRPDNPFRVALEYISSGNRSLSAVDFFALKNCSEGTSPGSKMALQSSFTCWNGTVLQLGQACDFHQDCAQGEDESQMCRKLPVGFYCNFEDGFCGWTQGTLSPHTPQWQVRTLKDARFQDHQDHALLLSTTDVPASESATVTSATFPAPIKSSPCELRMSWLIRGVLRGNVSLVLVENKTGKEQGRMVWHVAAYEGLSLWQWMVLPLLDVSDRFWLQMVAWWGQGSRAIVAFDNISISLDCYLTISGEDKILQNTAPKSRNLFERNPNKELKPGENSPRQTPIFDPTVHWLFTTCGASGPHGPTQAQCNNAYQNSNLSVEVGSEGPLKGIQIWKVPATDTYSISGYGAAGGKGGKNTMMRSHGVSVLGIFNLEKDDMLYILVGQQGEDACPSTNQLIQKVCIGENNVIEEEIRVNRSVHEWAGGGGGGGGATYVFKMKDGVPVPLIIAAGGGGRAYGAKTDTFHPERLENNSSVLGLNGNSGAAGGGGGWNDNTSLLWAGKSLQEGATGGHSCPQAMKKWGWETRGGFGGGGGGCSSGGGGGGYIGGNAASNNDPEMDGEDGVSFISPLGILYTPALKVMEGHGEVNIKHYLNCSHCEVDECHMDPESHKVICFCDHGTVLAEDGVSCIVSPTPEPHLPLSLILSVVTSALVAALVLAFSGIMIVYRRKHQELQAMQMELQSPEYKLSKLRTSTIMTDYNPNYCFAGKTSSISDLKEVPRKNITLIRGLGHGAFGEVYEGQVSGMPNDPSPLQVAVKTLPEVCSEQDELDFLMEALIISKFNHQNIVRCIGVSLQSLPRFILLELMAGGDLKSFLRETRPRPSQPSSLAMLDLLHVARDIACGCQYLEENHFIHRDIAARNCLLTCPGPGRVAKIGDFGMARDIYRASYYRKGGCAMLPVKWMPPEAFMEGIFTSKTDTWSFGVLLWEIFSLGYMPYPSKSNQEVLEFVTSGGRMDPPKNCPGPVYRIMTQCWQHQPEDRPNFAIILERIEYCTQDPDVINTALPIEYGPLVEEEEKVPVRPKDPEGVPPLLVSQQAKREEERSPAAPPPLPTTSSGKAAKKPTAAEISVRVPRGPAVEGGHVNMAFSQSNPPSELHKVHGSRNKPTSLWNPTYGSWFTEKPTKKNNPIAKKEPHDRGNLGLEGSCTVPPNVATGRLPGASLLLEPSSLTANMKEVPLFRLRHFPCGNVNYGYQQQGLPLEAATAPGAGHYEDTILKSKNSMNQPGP

`O=C1N[C@@H]2COC[C@@H]2Oc2ncc(F)cc2[C@H]2CCON2c2ccn3ncc1c3n2` [WX008A]: at ALK, the IC50 was 10.4 nM. Moreover, the “Apparent clearance Cl” value in series [1] (IV dose of 3 mg/kg) was 6.7 mL/min/kg. Further, the Vd in series [1] (male, CD-1, mouse, plasma, IV dose of 3 mg/kg, read-out: Apparent volume of distribution Vd) turned out to be 0.62 L/kg. Besides, the AUC(0-t) in series [1] (male, CD-1, mouse, plasma, IV dose of 3 mg/kg) stood at 18.2 µM·h; in series [1] (setting [5]) it was 39.6 µM·h. In series [1] (male, CD-1, mouse, plasma, IV dose of 3 mg/kg, read-out: Half life T1/2 (converted)), the half-life is 68.4 min. In addition, the bioavailability in series [1] (male, CD-1, mouse, plasma, PO dose of 10 mL/kg vs IV 3 mg/kg, read-out: Bioavailability F %) is 65%. Besides, the Cmax in series [1] (setting [5]) is 12.2 µM. In series [1] (male, CD-1, mouse, plasma, PO dose of 10 mL/kg, read-out: Time of peak concentration Tmax), the Tmax amounted to 15 min.

Regarding `O=C1NC2(CC2)COc2ncc(F)cc2[C@H]2CCON2c2ccn3ncc1c3n2` [WX002A], the IC50 on ALK came to 13 nM. Besides, the “Apparent clearance Cl” value in series [2] (IV @ 1 mpk) was determined as 6.3 mL/min/kg; in series [1] (IV dose of 3 mg/kg) it was 7.2 mL/min/kg. Also, the “Apparent volume of distribution Vd” value in series [2] (IV @ 1 mpk) is listed as 0.57 L/kg; in series [1] (IV dose of 3 mg/kg) it was 0.49 L/kg. In addition, the “Area under curve AUC0-inf” value in series [2] (IV @ 1 mpk) turned out to be 6.689 µM·h; in series [2] (PO @ 3 mpk), 19.769 µM·h. Besides, the “Half life T1/2” value in series [2] (IV @ 1 mpk) was determined as 52.8 min; in series [1] (IV dose of 3 mg/kg), 45 min. The C0 in series [2] (IV @ 1 mpk, plasma, read-out: Initial concentration C0) worked out at 3.71 µM. The “Bioavailability F %” value is recorded as 76% in series [2] (PO @ 3 mpk vs IV @ 1 mpk) and 51% in series [1] (PO dose of 10 mL/kg vs IV 3 mg/kg). Besides, the “Time of peak concentration Tmax” value in series [2] (PO @ 3 mpk) was determined as 15 min; in series [1] (PO dose of 10 mL/kg), 30 min. Besides, the “drug concentration in cerebrospinal fluid at 0.5 hour CSF@0.5 h” value in series [2] (PO @ 3 mpk, CSF, 0.5 h) came out at 63 nmol/kg. Further, in series [2] (PO @ 3 mpk, CSF, 2 h), the “drug concentration in cerebrospinal fluid at 2 hour CSF@2 h” value is 21 nmol/kg. For the same compound, in series [2] (PO @ 3 mpk, brain, 0.5 h), the “drug concentration in brain at 0.5 h Brain@0.5 h” value was 663 nmol/kg. In series [2] (PO @ 3 mpk, brain, 2 h), the “drug concentration in brain at 2 h Brain@2 h” value is reported as 343 nmol/kg. The Cmax worked out at 4.74 µM in series [2] (PO @ 3 mpk, read-out: Peak concentration Cmax) and 9.14 µM in series [1] (PO dose of 10 mL/kg). Also, the “Area under the curve AUC0-last” value in series [1] (IV dose of 3 mg/kg) was 17.502 µM·h; in series [1] (PO dose of 10 mL/kg) it was 29.787 µM·h. In addition, the T/C was 33.18% in series [3] (dose of 3 mg/kg); 15.63% in series [3] (dose of 15 mg/kg); 9.57% in series [4] (3 mg/kg BID); 3.07% in series [4] (15 mg/kg BID); 1.87% in series [4] (30 mg/kg BID). For the same compound, the TGI was found to be 71.23% in series [3] (dose of 3 mg/kg); 88.61% in series [3] (dose of 15 mg/kg); 118.02% in series [4] (3 mg/kg BID); 126.88% in series [4] (15 mg/kg BID); 128.36% in series [4] (30 mg/kg BID).
